Values joined by “and” are separate entries in the source; they are usually repeats but may differ in a detail not shown here. Equal entries are not always repeated. “Also recorded” adds a separate entry of the source.
What was measured:
[1] = 13-week repeat oral dose study in monkeys; details: monkey, in vivo
Excerpt: This dose was defined as the NOAEL in monkeys.

[2] = Genotoxicity in vitro or in vivo
human H3R [3] = target: T1, human H3R (Homo sapiens, UniProt Q9Y5N1); assay: Histamine H3 receptor binding, recombinant human H3R expressed in rat glioma C6 cells; design: expressed in transfected cells; host or cells: various mammalian cells (the earlier reading names rat glioma C6)
T1 sequence (Q9Y5N1 whole entry): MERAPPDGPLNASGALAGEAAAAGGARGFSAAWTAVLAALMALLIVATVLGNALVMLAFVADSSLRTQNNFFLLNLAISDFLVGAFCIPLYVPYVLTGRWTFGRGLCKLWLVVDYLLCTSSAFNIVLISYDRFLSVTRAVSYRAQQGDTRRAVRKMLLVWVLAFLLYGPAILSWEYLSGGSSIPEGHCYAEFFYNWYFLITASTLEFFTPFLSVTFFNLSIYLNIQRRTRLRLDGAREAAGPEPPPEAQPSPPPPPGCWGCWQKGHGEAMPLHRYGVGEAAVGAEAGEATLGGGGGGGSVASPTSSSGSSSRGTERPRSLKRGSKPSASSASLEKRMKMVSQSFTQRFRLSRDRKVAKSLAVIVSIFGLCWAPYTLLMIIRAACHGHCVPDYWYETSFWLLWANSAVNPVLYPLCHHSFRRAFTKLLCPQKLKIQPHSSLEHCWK

H2R = H2R (Cavia porcellus, UniProt P47747); assay: [125I]iodoaminopotentidine binding assay to the guinea pig H2 receptor; details: read-out: Ki or IC50, H2R
Sequence of H2R (P47747 whole entry): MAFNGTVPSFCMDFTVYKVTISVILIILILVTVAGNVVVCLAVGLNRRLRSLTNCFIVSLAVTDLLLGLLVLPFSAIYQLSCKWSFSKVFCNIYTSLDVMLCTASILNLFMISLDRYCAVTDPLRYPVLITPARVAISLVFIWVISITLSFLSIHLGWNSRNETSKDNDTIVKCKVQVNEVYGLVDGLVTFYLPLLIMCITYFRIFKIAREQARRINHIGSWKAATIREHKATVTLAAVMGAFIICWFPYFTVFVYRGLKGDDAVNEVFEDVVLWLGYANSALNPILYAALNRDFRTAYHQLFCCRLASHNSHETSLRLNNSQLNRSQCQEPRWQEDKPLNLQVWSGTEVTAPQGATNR

human H3R [4] = target: T1, human H3R; assay: [35S]GTPγS specific binding to membranes of CHO cells expressing the human H3R; format: biochemical; design: expressed in transfected cells; host or cells: CHO cells
Human H1R = Human H1R (Homo sapiens, UniProt P35367); assay: Histamine-induced increase in [35S]GTPγS binding; format: biochemical; details: read-out: Ki or IC50, [35S]GTPγS
Sequence of Human H1R (P35367 whole entry): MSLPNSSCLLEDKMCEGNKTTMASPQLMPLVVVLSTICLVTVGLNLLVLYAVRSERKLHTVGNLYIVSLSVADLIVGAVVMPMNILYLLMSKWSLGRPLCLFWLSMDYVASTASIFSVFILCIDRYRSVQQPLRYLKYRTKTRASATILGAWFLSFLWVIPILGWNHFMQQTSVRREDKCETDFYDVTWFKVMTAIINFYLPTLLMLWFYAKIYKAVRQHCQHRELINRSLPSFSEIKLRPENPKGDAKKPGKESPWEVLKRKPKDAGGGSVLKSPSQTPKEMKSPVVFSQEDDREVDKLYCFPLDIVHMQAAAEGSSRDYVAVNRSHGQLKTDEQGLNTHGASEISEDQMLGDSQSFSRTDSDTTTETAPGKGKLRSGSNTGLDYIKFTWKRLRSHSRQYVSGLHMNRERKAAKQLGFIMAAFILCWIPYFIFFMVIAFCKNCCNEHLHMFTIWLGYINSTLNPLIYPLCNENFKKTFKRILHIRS

[5] = 13-week repeat oral dose study in rats; details: rat, in vivo, read-out: NOAEL (no observed adverse effect level)
Human H4R = Human H4R (Homo sapiens, UniProt Q9H3N8); assay: [3H]histamine binding assay; details: read-out: Ki or IC50, Human H4R
Sequence of Human H4R (Q9H3N8 whole entry): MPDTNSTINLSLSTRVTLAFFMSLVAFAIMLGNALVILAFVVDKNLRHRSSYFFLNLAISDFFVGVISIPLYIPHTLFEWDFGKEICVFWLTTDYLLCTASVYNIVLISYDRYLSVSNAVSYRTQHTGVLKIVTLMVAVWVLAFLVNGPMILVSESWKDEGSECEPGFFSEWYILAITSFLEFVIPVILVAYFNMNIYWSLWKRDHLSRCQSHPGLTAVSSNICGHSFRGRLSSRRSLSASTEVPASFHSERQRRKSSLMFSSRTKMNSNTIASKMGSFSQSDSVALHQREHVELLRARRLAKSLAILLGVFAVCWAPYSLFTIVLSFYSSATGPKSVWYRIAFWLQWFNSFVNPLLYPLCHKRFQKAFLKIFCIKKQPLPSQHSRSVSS

epileptic patients = assay: Photo paroxysmal response (PPR) to intermittent photic stimulation in photosensitive epileptic patients, single-blind single dose; format: in vivo, human; details: for Delay of apparition / Duration of effect / Suppression of PPR: individual patients
Excerpt: Acta Neurol. […] Unlike most other epilepsies, photosensitive epilepsy is a reflex epilepsy and epileptiform discharges can be evoked at any time by IPS in the laboratory. By determination of both upper and lower sensitivity limits (frequencies per flash) a so-called photosensitivity range can be determined. The range is related to liability of seizures in daily life of the patient. This photosensitivity range is relatively stable within a patient and can be diminished or abolished by antiepileptic medication. […] Twelve patients have been enrolled. Four patients received the dose of 20 mg. […] Four patients received the dose of 40 mg.

volunteers [6] = assay: Phase I study of subjective satiety, interaction with olanzapine; format: in vivo, human
Experimental: A single-center, open-label, placebo-controlled phase I study was performed to evaluate the subjective satiety in 6 volunteers. The volunteers enrolled in the study underwent five single day administration periods.

volunteers [7] = assay: Single ascending dose EEG, psychometric and vigilance study in volunteers; format: in vivo, human
Experimental: A single-center, double-blind, randomized, placebo-controlled, single ascending doses, electroencephalographic study was performed in 36 volunteers. Subjects were consecutively enrolled in groups 1 to 6 (1, 5, 10, 20, 40 or 60 mg). All subjects of each dose group were randomly assigned to receive either 1-[3-[3-(4-chlorophenyl) propoxy]propyl]-piperidine monohydrochloride or placebo, in such a way that 5 subjects received the product and one subject received placebo.
From the EEG spectral analysis performed before treatment, the study subjects could be stratified as microvolted (66%) and normo or grandvolted (33%). The distribution between those subjects with 30-40% slow activity and 20-25% rapid activity (microvolted), and those with 10% slow activity (normovolted) or 60-80% of [alpha]-activity (grandvolted), explains that before drug administration significant differences were elicited for 20-30 Hz and 30-40 Hz activities.

[8] = Stability to oxidation conditions (melting points under nitrogen and oxygen atmosphere); format: physicochemical
Experimental: Melting points of the above salts were also determined under nitrogen and oxygen atmosphere, in order to verify their stability to oxidation conditions.

mice = assay: Sleep-wake cycle study in mice (EEG/EMG); format: in vivo, mouse
Experimental: Animals were chronically implanted with cortical and muscle electrodes to record EEG and EMG respectively, to allow monitoring their sleep-wake cycle. After recovery from surgery, animals were housed individually in a sound-proof recorded room maintaining at appropriate ambient temperature on a 12 h light/dark cycle. Polygraphic recordings were performed during 4 days to collect reference qualitative and quantitative data of sleep-wake control in each individual. Then, pharmacological evaluation was performed over 24 h sessions and analyzed by successive 30 sec epochs. Wakefulness and sleep states were identified as previously described for cats [Petitjean et al., Brain Res., 1975, 88: 439-53] and mice [Valatx and Bugat, Brain Res., 1974, 69: 315-30].
Polygraphic recordings were started 15 days after surgery (5 days recovery plus 10 days acclimation to the recording wires). Sleep-wake recording criteria included wakefulness (W), slow wave sleep (SWS) and paradoxical sleep (PS). Spectral analysis of EEG was performed by Fast-Fourier Transform in the 0.8-2.5 Hz, 8-15 Hz and 30-60 Hz frequency bands.

Mouse Brain native H3R = target: T2, Mouse Brain native H3R (Mus musculus, UniProt P58406); assay: Histamine H3 receptor binding, mouse brain cortex membranes
T2 construct: was performed on mouse brain cortex membranes; from tissue; host or cells: mouse brain cortex membranes
T2 sequence (P58406 whole entry): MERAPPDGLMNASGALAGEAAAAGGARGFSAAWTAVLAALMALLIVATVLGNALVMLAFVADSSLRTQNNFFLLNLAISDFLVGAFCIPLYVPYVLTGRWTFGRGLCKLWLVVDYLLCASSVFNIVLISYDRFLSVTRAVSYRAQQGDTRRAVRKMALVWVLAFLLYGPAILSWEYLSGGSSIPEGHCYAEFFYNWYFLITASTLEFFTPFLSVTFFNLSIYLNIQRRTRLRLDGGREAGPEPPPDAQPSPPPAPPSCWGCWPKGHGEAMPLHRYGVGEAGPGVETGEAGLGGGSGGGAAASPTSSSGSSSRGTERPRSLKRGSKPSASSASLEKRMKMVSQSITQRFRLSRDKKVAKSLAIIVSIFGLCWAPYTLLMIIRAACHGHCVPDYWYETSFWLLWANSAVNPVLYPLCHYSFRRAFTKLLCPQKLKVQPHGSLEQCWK

human H3R [9] = target: T1, human H3R; assay: A23187-evoked [3H]arachidonic acid release from CHO cells expressing human H3R; format: cell-based; design: expressed in transfected cells; host or cells: CHO cells; details: 1 μM, human H3R 300-400 fmol/mg protein
[10] = 40 mg single dose, monohydrochloride
[11] = 60 mg single dose, monohydrochloride
[12] = two hours after single oral 40 mg and 60 mg

With `Cl.Clc1ccc(CCCOCCCN2CCCCC2)cc1` [1-[3-[3-(4-chlorophenyl)propoxy]propyl]-piperidine monohydrochloride] the NOAEL at 13 weeks [1] was 5 mg/kg/day, the genotoxicity [2] was “not to be genotoxic in vitro or in vivo” and the “difference between the affinity at H3R and at other histamine receptors” value (human H3R [3]) was “three orders of magnitude”. The “potency at the human H3R as compared to the mouse H3R” value (human H3R [3]; same test system) was “about 6 times”, the Ki (H2R) was roughly 5000 nM and the “decrease in [35S]GTPγS specific binding” value (human H3R [4]; 10 nM, receptor level 1000-1100 fmol/mg protein) was 22%. The “maximal decrease of specific binding of [35S]GTPγS” value (human H3R [4]; receptor level 410 fmol/mg protein) was 25%, the solubility (physchem; pH 4.5, aqueous buffer) was greater than 1000 mg/mL and the solubility (physchem; pH 7.4, aqueous buffer) was greater than 1000 mg/mL. For the same compound, the solubility (physchem; water) was greater than 1000 mg/mL, the IC50 (Human H1R) was greater than 10000 nM and the NOAEL at 13 weeks [5] was 30 mg/kg/day. The Ki (Human H4R) was greater than 100000 nM, the Delay of apparition (epileptic patients; 20 mg single dose) was 2 h and the Duration of effect (epileptic patients; 20 mg single dose) was 6 h. The “Suppression of PPR” value (epileptic patients; 20 mg single dose, monohydrochloride) was “No (3×) and Total”, the Delay of apparition (epileptic patients; [10]) was <1 hour hours and 2 hours and the Duration of effect (epileptic patients; [10]) was >8 h and 26 h. The “Suppression of PPR” value (epileptic patients; [10]) was “No (2×) and Total and Partial”, the Delay of apparition (epileptic patients; [11]) was 2 hours and <1 hour hours (3×) and the Duration of effect (epileptic patients; [11]) was >8 hours (2×) and >36 hours and 26 hours. The “Suppression of PPR” value (epileptic patients; [11]) was “Partial; also recorded: Total”, the clinical response (epileptic patients; 60 mg, four patients) was “clinical response in all four patients” and the “appearance of effect post administration” value (epileptic patients; 20-60 mg, overall) was 1 to 2 h. For the same compound, the “subjective satiety versus placebo” value (volunteers [6]; 60 mg) was “significantly increased”, the “subjective satiety, association with olanzapine” value (volunteers [6]; 60 mg + olanzapine 5 mg) was “able to counteract the effect of olanzapine leading to subjective satiety superimposable to placebo” and the “flicker, fusion and flicker-fusion thresholds (CFF) vs placebo” value (volunteers [7]; single 60 mg) was “higher”. For the same compound, the “ARCI 49” value (volunteers [7]; single doses 1-60 mg) was “no trend or statistically significant drug effect”, the “self-perception of sleep (LEEDS), alertness, contentedness and calmness (Bond-Lader VAS), choice reaction time (CRT)” value (volunteers [7]; single doses 1-60 mg) was “no statistically significant drug effect” and the “EEG rapid activity (20-30 Hz anterior leads, 16 to 40 Hz posterior leads)” value (volunteers [7]; [12]) was “statistically significant increase of rapid activity”. For the same compound, the “median peak position (MPP) on the frequency axis” value (volunteers [7]; [12]) was “from 10 to 15-17 Hz and from 11 to 13-15 Hz”, the “Melting point, N2 atmosphere (stability to oxidation conditions)” value ([8]; N2 atmosphere) was 117.68 °C and the “Melting point, O2 atmosphere (stability to oxidation conditions)” value ([8]; O2 atmosphere) was 117.54 °C. The “stability to oxidation conditions” value ([8]; melting points under nitrogen vs oxygen atmosphere) was “better profile of stability to oxidation conditions than other salts”, the “increase in W duration” value (mice; 10 mg/kg oral) was 29% and the “increase in W duration” value (mice; 20 mg/kg oral) was 69%. The “behavioral change in treated mice” value (mice; oral) was “No behavioral change”, the “awakening (W) at the expense of SWS and PS” value (mice; oral, 2.5, 5, 10 or 20 mg/kg) was “dose-dependent increase in awakening” and the Ki (Mouse Brain native H3R; radioligand [3H](R)α-MeHA) was 5.7 ± 0.2 nM. For the same compound, the Ki (Mouse Brain native H3R; radioligand [125I]iodoproxyfan) was 14 ± 0.1 nM and the “reduction of the A23187-evoked [3H]AA release” value (human H3R [9]) was 20%.

Source: patent US8354430B2, “Monohydrochloride salt of 1-[3-[3-(4-chlorophenyl) propoxy]propyl]-piperidine” (priority 2005, dated 2013)
